Experimental data reported in ChEMBL document CHEMBL1201862, “PubChem BioAssay data set” (2004).
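The compound was tested at five concentrations on cells cultured in 96-well plates, with a 48-hour exposure period. GI50 = concentration required for 50% inhibition of growth.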 Calls of active or inactive are those of the source. No stated cut-off is given here; in the data, active = GI50 up to about 1.1 µM and inactive = higher.

What was measured:
Assay in all cases: NCI anticancer screen, dose series, 48 h
KM12 = tested on: KM12
CAKI-1 = tested on: CAKI-1
OVCAR-4 = tested on: OVCAR-4
UO-31 = tested on: UO-31
NCI/ADR-RES = tested on: NCI/ADR-RES
NCI-H23 = tested on: NCI-H23
SK-MEL-28 = tested on: SK-MEL-28
HT-29 = tested on: HT-29
NCI-H460 = tested on: NCI-H460
TK-10 = tested on: TK-10
HCC 2998 = tested on: HCC 2998
SW-620 = tested on: SW-620
HL-60 = tested on: HL-60
M14 = tested on: M14
SK-OV-3 = tested on: SK-OV-3
786-0 = tested on: 786-0
SR = tested on: SR
CCRF-CEM = tested on: CCRF-CEM
OVCAR-5 = tested on: OVCAR-5
NCI-H522 = tested on: NCI-H522

Measured: GI50

COC(=O)[C@H](C)NC(=O)[C@H](NS(=O)(=O)c1nc2ccccc2s1)c1ccccc1
inactive: KM12 14 µM | CAKI-1 32.4 µM | OVCAR-4 26.2 µM | UO-31 19.7 µM | NCI/ADR-RES 30.3 µM | NCI-H23 36.3 µM | SK-MEL-28 17 µM | HT-29 39.4 µM | NCI-H460 24.9 µM | TK-10 58.1 µM | HCC 2998 20.1 µM | SW-620 37.3 µM | HL-60 39.3 µM | M14 10.4 µM | SK-OV-3 33.2 µM | 786-0 29.2 µM | SR 15.6 µM | CCRF-CEM 34.4 µM

C=CCCCCCCCCC(=O)ON(Cc1ccc(O)c(OC)c1)C(=O)C(F)(F)F
inactive: KM12 52.5 µM | OVCAR-4 > 100 µM | UO-31 10.9 µM | NCI/ADR-RES > 100 µM | NCI-H23 > 100 µM | SK-MEL-28 > 100 µM | HT-29 > 100 µM | NCI-H460 > 100 µM | TK-10 > 100 µM | HCC 2998 > 100 µM | OVCAR-5 > 100 µM | SW-620 > 100 µM | HL-60 12.4 µM | M14 > 100 µM | SK-OV-3 > 100 µM | 786-0 > 100 µM | SR 22.9 µM | CCRF-CEM 10 µM

Cc1ncc(C/N=C/c2ccc(Cl)cc2)c(N)n1
inactive: KM12 > 100 µM | CAKI-1 > 100 µM | OVCAR-4 > 100 µM | UO-31 > 100 µM | NCI/ADR-RES > 100 µM | NCI-H23 > 100 µM | SK-MEL-28 > 100 µM | NCI-H522 > 100 µM | HT-29 > 100 µM | NCI-H460 > 100 µM | TK-10 > 100 µM | OVCAR-5 > 100 µM | SW-620 > 100 µM | HL-60 > 100 µM | M14 > 100 µM | SK-OV-3 > 100 µM | 786-0 > 100 µM | SR > 100 µM | CCRF-CEM > 100 µM

CC1=NN(c2ccccc2)C(=O)C1/N=N/c1ccc([As](=O)(O)O)c(O)c1 (configuration not stated)
inactive: KM12 > 100 µM | CAKI-1 > 100 µM | OVCAR-4 > 100 µM | UO-31 > 100 µM | NCI/ADR-RES > 100 µM | NCI-H23 > 100 µM | SK-MEL-28 > 100 µM | NCI-H522 > 100 µM | HT-29 > 100 µM | NCI-H460 > 100 µM | TK-10 > 100 µM | OVCAR-5 > 100 µM | SW-620 > 100 µM | HL-60 87.1 µM | M14 > 100 µM | SK-OV-3 > 100 µM | 786-0 > 100 µM | SR > 100 µM | CCRF-CEM 25.4 µM

O=C1N/C(=N/N=C/c2ccccc2)N/C1=C\c1cccs1
inactive: KM12 18.4 µM | CAKI-1 16.7 µM | OVCAR-4 22.3 µM | UO-31 21.8 µM | NCI/ADR-RES 15.2 µM | NCI-H23 15.9 µM | SK-MEL-28 15.8 µM | NCI-H522 1.98 µM | HT-29 19.1 µM | NCI-H460 31.8 µM | TK-10 23.1 µM | OVCAR-5 28.6 µM | SW-620 11.7 µM | HL-60 12.3 µM | M14 29.3 µM | SK-OV-3 18.6 µM | 786-0 18.5 µM | SR 28.2 µM | CCRF-CEM 13.3 µM

Nc1nc(=O)c2c([nH]1)NCC(CCNc1ccc(C(=O)O)cc1)N2 (configuration not stated)
inactive: KM12 > 100 µM | CAKI-1 > 100 µM | OVCAR-4 > 100 µM | UO-31 > 100 µM | NCI/ADR-RES > 100 µM | NCI-H23 > 100 µM | SK-MEL-28 > 100 µM | NCI-H522 > 100 µM | HT-29 > 100 µM | NCI-H460 > 100 µM | TK-10 > 100 µM | OVCAR-5 > 100 µM | SW-620 > 100 µM | HL-60 78 µM | M14 > 100 µM | SK-OV-3 > 100 µM | 786-0 > 100 µM | SR > 100 µM | CCRF-CEM > 100 µM
